These results are taken from patent US10160763B2, “WDR5 inhibitors and modulators” (Vanderbilt University, priority 2016, dated 2018).

The target of this assay is WDR5 (Δ23, residues 24-334) (Homo sapiens, UniProt P61964). Put plainly: biochemical. Conditions: Kd (M), FPA-based binding affinity at the WDR5 WIN site; IC50 converted to Kd by modified Cheng-Prusoff equation; average of two experiments.
As a reminder, the Kd is a measure of binding affinity in units of concentration. Read a low Kd as tighter binding. With `CCC(=O)N1CCCC(C(=O)NC(C)c2cc(-c3cn4c(n3)CCC4)ccc2OC2CCC2)C1` (stereo not drawn) [B210], the Kd came to 3.1e-07 M. In other words, the sub-micromolar range. On to `O=C(Cc1ccc(F)c(Cl)c1)N(Cc1cc(-c2cn3c(n2)CCC3)ccc1N1CCOCC1)CC1CCOCC1` [B202], for which binding was characterised by a dissociation constant (Kd) of 4.56e-07 M. With `COc1ccc(C(=O)N(Cc2ccc(C)cc2)Cc2cccc(-c3cn4c(n3)CCC4)c2)cc1OC` [B66], the Kd worked out at 5.53e-07 M. Take `COc1cccc(CN(Cc2cccc(-c3cn4c(n3)CCC4)c2)C(=O)c2ccc(OC)c(OC)c2)c1` [B64]: binding was characterised by a dissociation constant (Kd) of 5.38e-07 M. The Kd values of the last two compounds are within 1.5-fold of each other.

`COC1CCN(c2ccc(-c3cn4c(n3)CCC4)cc2CNC(=O)Cc2ccc(Cl)c(Cl)c2)C1` (stereo not drawn) [B177] yielded an equilibrium dissociation constant (Kd) of 2.08e-06 M. Turning to `COc1cccc(NC(=O)N(C)Cc2cccc(-c3cn4c(n3)CCC4)c2)c1` [B31], the dissociation constant Kd stood at 3.24e-07 M.

`O=C(CCc1ccccc1)NCc1cccc(-c2cn3c(n2)CCC3)c1` [B13] gave a Kd of 2.3e-06 M. The compound `O=C(Cc1cc(Cl)cc(Cl)c1)N(Cc1cccc(-c2cn3c(n2)CCC3)c1)CC1CC1` [B60, N-(Cyclopropylmethyl)-2-(3,5-dichlorophenyl)-N-(3-(6,7-dihydro-5H-pyrrolo[1,2-a]imidazol-2-yl)benzyl)acetamide] yielded a Kd of 2.85e-07 M. As to `O=C(NCc1cccc(-c2cn3c(n2)CCC3)c1)c1ccc(F)cc1` [B3], binding was characterised by a dissociation constant (Kd) of 5e-06 M. As for `COc1cccc(C(=O)NCc2cc(-c3cn4c(n3)CCC4)ccc2N2CCCCC2)c1` [B103], binding was put at a Kd of 1.04e-07 M. This Kd lies about 48-fold lower than the previous one.

`COc1cccc(C(=O)NCc2cc(-c3cn4c(n3)CCC4)ccc2OCc2ccccc2)c1` [B115]: the Kd came out at 1.3e-08 M. Under `COc1cccc(C(=O)NCc2cc(-c3cn4c(n3)CCC4)ccc2N2CCN(C)CC2)c1` [B147, N-(5-(6,7-dihydro-5H-pyrrolo[1,2-a]imidazol-2-yl)-2-(4-methylpiperazin-1-yl)benzyl)-3-methoxybenzamide] stands 2.22e-06 M; under `COc1cc(C(=O)NCc2cc(-c3cn4c(n3)CCC4)ccc2N2CCOCC2)ccc1C` [B194], 2.04e-06 M.

Compound `COc1ccc(C(=O)N(Cc2cc(Cl)cc(-c3cn4c(n3)CCC4)c2)CC2CC2)cc1OC` [B46] returned a Kd of 1.25e-07 M. `CC(=O)N1CCCC(CC(=O)NCc2cccc(-c3cn4c(n3)CCC4)c2)C1` (stereo not drawn) [B140] showed a Kd of 8.67e-07 M.

On to `O=C(Cc1ccc(F)c(Cl)c1)NCc1cccc(-c2cn3c(n2)CCC3)c1` [B155], for which binding was put at a Kd of 1.05e-07 M. Against the preceding compound, the Kd is about 8.3-fold lower. The result for `COc1cccc(C(=O)N(Cc2cccc(-c3cn4c(n3)CCC4)c2)CC2CCCC2)c1` [B41] reads 2.95e-07 M; that for `CC(=O)N1CCCCC1C(=O)NCc1cccc(-c2cn3c(n2)CCC3)c1` (stereo not drawn) [B188], 3.3e-08 M.

`O=C(Cc1c[nH]c2ccccc12)NCc1cccc(-c2cn3c(n2)CCC3)c1` [B122] came in with a Kd of 2.64e-07 M. For `CCC(C)N(Cc1cccc(-c2cn3c(n2)CCC3)c1)C(=O)c1cccc(OC)c1` (stereo not drawn) [B86], binding was characterised by a dissociation constant (Kd) of 4.25e-07 M. Compound `O=C(NCc1cccc(-c2cn3c(n2)CCC3)c1)c1cnco1` [B170] had a Kd of 9.24e-07 M.
